According to patent publication US9408863B2, “5′-substituted nucleoside analogs and methods of use thereof for the treatment of viral diseases” (Merck Sharp & Dohme Corp., priority 2011, dated 2016):
Read-outs that look alike come from different tables or passages of the source.

Test system: HCV replicon (1b) in replicon cells
Assay: Cell-based HCV replicon assay (replicon RNA level by real time PCR, Taqman)
Conditions: Hepatitis C virus, 72 h, read-out: 1b EC50
Experimental: To measure cell-based anti-HCV activity of selected compounds of the present invention, replicon cells were seeded at 5000 cells/well in 96-well collagen I-coated Nunc plates in the presence of the test compound. Various concentrations of test compound, typically in 10 serial 2-fold dilutions, were added to the assay mixture, with the starting concentration ranging from 250 μM to 1 μM. The final concentration of dimethylsulfoxide was 0.5%, fetal bovine serum was 5%, in the assay media. Cells were harvested on day 3 by the addition of 1× cell lysis buffer (Ambion cat #8721). The replicon RNA level was measured using real time PCR (Taqman assay). The amplicon was located in 5B. The PCR primers were: 5B.2F, ATGGACAGGCGCCCTGA (SEQ ID. NO. 1); 5B.2R, […] (SEQ ID. NO. 2); the probe sequence was FAM-labeled CACGCCATGCGCTGCGG (SEQ ID. NO. 3). GAPDH RNA was used as endogenous control and was amplified in the same reaction as NS5B (multiplex PCR) using primers and VIC-labeled probe recommended by the manufacturer (PE Applied Biosystem). The real-time RT-PCR reactions were run on ABI PRISM 7900HT Sequence Detection System using the following program: 48° C. for 30 minutes, 95° C. for 10 minutes, 40 cycles of 95° C. for 15 sec, 60° C. for 1 minute. The ACT values (CT5B-CTGAPDH) were plotted against the concentration of test compound and fitted to the sigmoid dose-response model using XLfit4 (MDL). EC50 was defined as the concentration of inhibitor necessary to achieve ΔCT=1 over the projected baseline; EC90 the concentration necessary to achieve ΔCT=3.2 over the baseline. Alternatively, to quantitate the absolute amount of replicon RNA, a standard curve was established by including serially diluted T7 transcripts of replicon RNA in the Taqman assay. All Taqman reagents were from PE Applied Biosystems. Such an assay procedure was described in detail in e.g. Malcolm et al., Antimicrobial Agents and Chemotherapy 50: 1013-1020 (2006).

[1] = HCV 1b replicon cells, harvested on day 3, EC50 = concentration to achieve ΔCT=1 over projected baseline

| SMILES | EC50 [1] [µM] | EC50 [µM] |
| --- | --- | --- |
| C[C@@H](O)[C@H]1O[C@@H](n2ccc(N)nc2=O)[C@](C)(O)[C@@H]1O [Compound 1] | > 100 | – |
| CCCCOC(=O)[C@H](C)NP(=O)(Oc1cccc2ccccc12)O[C@H](C)[C@H]1O[C@@H](n2ccc(N)nc2=O)[C@](C)(O)[C@@H]1O (stereo partly shown) [Compound 2] | – | 10 |
| C[C@@H](O)[C@H]1O[C@@H](n2ccc(=O)[nH]c2=O)[C@](C)(O)[C@@H]1O [Compound 3] | > 100 | – |
| CCCCOC(=O)[C@H](C)NP(=O)(Oc1cccc2ccccc12)O[C@H](C)[C@H]1O[C@@H](n2ccc(=O)[nH]c2=O)[C@](C)(O)[C@@H]1O (stereo partly shown) [Compound 4] | – | > 100 |
| C[C@H](O)[C@H]1O[C@@H](n2ccc(N)nc2=O)[C@](C)(O)[C@@H]1O [Compound 5] | > 100 | – |
| CCCCOC(=O)[C@H](C)NP(=O)(Oc1cccc2ccccc12)O[C@@H](C)[C@H]1O[C@@H](n2ccc(N)nc2=O)[C@](C)(O)[C@@H]1O (stereo partly shown) [Compound 6] | – | > 100 |
| CC(O)[C@H]1O[C@@H](n2ccc(NC(=O)c3ccccc3)nc2=O)[C@](C)(F)[C@@H]1O (stereo partly shown) [Compound 7] | > 100 | – |
| CC(O)[C@H]1O[C@@H](n2ccc(N)nc2=O)[C@](C)(F)[C@@H]1O (stereo partly shown) [Compound 8] | 38 | – |
| C[C@@H](O)[C@H]1O[C@@H](n2cnc3c(=O)[nH]c(N)nc32)[C@](C)(O)[C@@H]1O [Compound 9] | > 100 | – |
| CCCCOC(=O)[C@H](C)NP(=O)(Oc1cccc2ccccc12)O[C@H](C)[C@H]1O[C@@H](n2cnc3c(=O)[nH]c(N)nc32)[C@](C)(O)[C@@H]1O (stereo partly shown) [Compound 10] | – | > 100 |
| C[C@H](O)[C@H]1O[C@@H](n2cnc3c(=O)[nH]c(N)nc32)[C@](C)(O)[C@@H]1O [Compound 11] | > 100 | – |
| CC(O)[C@H]1O[C@@H](n2cnc3c(OCc4ccccc4)nc(NC(=O)c4ccccc4)nc32)[C@](C)(F)[C@@H]1O (stereo partly shown) [Compound 12] | 14 | – |
| CC(O)[C@H]1O[C@@H](n2cnc3c(=O)[nH]c(N)nc32)[C@](C)(F)[C@@H]1O (stereo partly shown) [Compound 13] | 3.5 | – |
